Data from patent publication US20220142990A1, “EXTERNAL PREPARATION FOR TREATING A VASCULAR ANOMALY” (OSAKA UNIVERSITY, priority 2019, published 2022).

Test: Test Example 4: sirolimus in blood of the patients
Type: in vivo, human
Settings: Patients A, B, C; 0.2% sirolimus gel applied to lesion twice a day for 12 weeks; not detected, measurement limit value
Method: The gel containing 0.2 wt % of sirolimus produced in Production Example 3 (hereinafter referred to as 0.2% sirolimus gel) was applied to a lesion portion twice a day for 12 weeks. An approximate size of an application target lesion was measured to determine a single application amount. The application amount was set to about 125 mg of gel per 50 cm^2. In the sirolimus gel treatment period (12 weeks), no combined medicine was used, and no combination therapy was performed.
Sirolimus was not detected from the blood of any of the patients (measurement limit value: 1.0 ng/mL).

Work on `CO[C@H]1C[C@@H]2CC[C@@H](C)[C@@](O)(O2)C(=O)C(=O)N2CCCC[C@H]2C(=O)O[C@H]([C@H](C)C[C@@H]2CC[C@@H](O)[C@H](OC)C2)CC(=O)[C@H](C)/C=C(\C)[C@@H](O)[C@@H](OC)C(=O)[C@H](C)C[C@H](C)/C=C/C=C/C=C/1C` [Sirolimus, sirolimus] yielded a sirolimus in blood of less than 1.0 ng/mL.
